The numbers were not newly measured in publication PMC12332767 (RSC Chemical Biology, 2025), which cites them from elsewhere.

With heparin [HI], the Insoluble in chloroform (HI alone) is on record as 98.5%. The “Soluble in chloroform in interaction with PC” value (HI in interaction with PC) is reported as 74%.
